Data set [1] concerns SARS-CoV-2. The data set can be described thus: Antiviral actvity against SARS-CoV2 infected in human assessed as improvement rate of chest at 1600 mg, po administered twice on day 1 and 600 mg BID on day 2 to 14 and measured after 14 days by computed tomography. In kind it is functional, Severe acute respiratory syndrome coronavirus 2. Particulars: time 14 day.
The subject of data set [2] is Zaire ebolavirus. The data set can be described thus: Antiviral activity against Zaire Ebola virus infected in IFNAR-/- C57BL/6 mouse assessed as mouse survival at 300 mg/kg, po administered twice daily starting from day 6 post infection until day 13 post infection and measured at the end of 3 weeks. In kind it is functional.
Data set [3] deals with Zaire ebolavirus. The data set can be described thus: Antiviral activity against Zaire Ebola virus infected in African green monkey Vero E6 cells measured after 5 days by immunofocus assay. In kind it is functional, organism-based. Particulars: Vero C1008, 120 h.
Data set [4] relates to SARS-CoV-2. The data set can be described thus: Antiviral activity against 2019-nCoV BetaCoV/Wuhan/WIV04/2019 infected in African green monkey VeroE6 cells assessed as reduction in viral yield preincubated with virus for 1 hr followed by cell infection and […] by qRT-PCR method. The format is functional, organism-based. Particulars: Severe acute respiratory syndrome coronavirus 2, BetaCoV/Wuhan/WIV04/2019, Vero C1008. For orientation: Quantitative PCR measures a nucleic acid by following its amplification.

Data set [5] can be described thus: Cytotoxicity against African green monkey Vero E6 cells by the CCK8 assay. The format is cell-based, Vero C1008. As to conditions: chlorocebus sabaeus. (In general: Formazan colour is commonly taken as a measure of viable cells.)
A short description of data set [6]: Selectivity index, ratio of CC50 for African green monkey Vero E6 cells to EC50 for 2019-nCoV Beta CoV/Wuhan/WIV04/2019 infected in African green monkey Vero E6 cells. The format is toxicity, Vero C1008. Particulars: read-out: Ratio CC50/EC50.
Data set [7] in a line: Toxicity in human infected with SARS-CoV2 assessed as adverse events at 1600 mg, po administered twice on day 1 and 600 mg BID on day 2 to 14 and measured after 14 days. Particulars: in vivo, 336 h, time 14 day. In kind it is organism-based.
In data set [8] the test system is SARS-CoV-2. The data set can be described thus: Antiviral actvity against SARS-CoV2 infected in human assessed as latency time to pyrexia reduction at 1600 mg administered twice on day 1 and 600 mg BID for 7 days. In kind it is functional, Severe acute respiratory syndrome coronavirus 2. As to conditions: time 7 day.
The test system of data set [9] is SARS-CoV-2. The data set can be described thus: Antiviral actvity against SARS-CoV2 infected in human assessed as latency time to cough relief at 1600 mg administered twice on day 1 and 600 mg BID for 7 days. The format is functional, Severe acute respiratory syndrome coronavirus 2. As to conditions: time 7 day.
Data set [10] in a line: Inhibition of SARS Coronavirus helicase pp1ab domain assessed as reduction in ATPase activity by phosphomolybdate-malachite green assay. Set-up: species or system Severe acute respiratory syndrome-related coronavirus.
A short description of data set [11]: Inhibition of SARS Coronavirus helicase pp1ab domain assessed as reduction in helicase activity using DT20Cy3/Release BHQ oligomers by FRET-based assay. Set-up: species or system Severe acute respiratory syndrome-related coronavirus.
The test system of data set [12] is SARS-CoV. In words: Antiviral actvity against SARS-CoV GZ50 infected in Rhesus macaque FRhK-4 cells assessed as reduction in virus-induced cytopathic effect incubated for 24 to 48 hrs by phase-contrast microscopy. In kind it is functional, organism-based. Particulars: Severe acute respiratory syndrome-related coronavirus, GZ50, FRhK-4. A general note: Damage to the host cells serves as the signal in cytopathic effect assays.

Data set [13] in a line: Cytotoxicity against Rhesus macaque FRhK-4 cells by MTT assay. As to conditions: rhesus monkey. The format is cell-based, Macaca mulatta.
A short description of data set [14]: Cytotoxicity against human Huh-7 cells incubated for 1 hr by MTS assay. In kind it is cell-based.
A short description of data set [15]: Cytotoxicity against African green monkey Vero E6 cells incubated for 3 days by the MTS assay. In kind it is cell-based, Vero C1008. Particulars: chlorocebus sabaeus, time 3 day.
The test system of data set [16] is Human coronavirus OC43. In words: Antiviral activity against wild type HCoV-OC43 infected in BHK-21 cells incubated for 72 hrs by RT-PCR method. Particulars: Betacoronavirus 1, BHK-21, 72 h. In kind it is functional, cell-based.
For data set [17], the system named is SARS-CoV. In words: Antiviral activity against SARS-CoV isolate Frankfurt-1 infected in African green monkey Vero E6 cells incubated for 3 days. In kind it is functional, organism-based. As to conditions: Severe acute respiratory syndrome-related coronavirus, Frankfurt 1, Vero C1008, 72 h.
Data set [18] concerns SARS-CoV. In words: Antiviral activity against SARS-CoV isolate Frankfurt-1 infected in African green monkey Vero E6 cells incubated for 3 days by MTS assay. The format is functional, organism-based. As to conditions: Severe acute respiratory syndrome-related coronavirus, Frankfurt 1, Vero C1008, 72 h.
Data set [19] can be described thus: Cytotoxicity against African green monkey Vero E6 cells by the MTS assay. In kind it is cell-based, Vero C1008. As to conditions: chlorocebus sabaeus.
Data set [20] has as its system SARS-CoV-2. In words: Antiviral actvity against SARS-CoV2 infected in human assessed as improvement rate of chest at 400 mg, po administered twice daily cotreated with 100 mg ritonavir and measured after 14 days by computed tomography. The format is functional, Severe acute respiratory syndrome coronavirus 2. Particulars: time 14 day.
Data set [21] is described as follows: Toxicity in human infected with SARS-CoV2 assessed as adverse events at 400 mg, po administered twice daily cotreated with 100 mg ritonavir and measured after 14 days. In kind it is organism-based. As to conditions: in vivo, 336 h, time 14 day.
Data set [22] relates to SARS-CoV. In words: Antiviral activity against SARS-CoV BJ-001 infected in African green monkey Vero E6 cells assessed as reduction in virus induced cytopathic effect by visual observation. The format is functional, organism-based. Particulars: Severe acute respiratory syndrome-related coronavirus, BJ-001, Vero C1008.
The test system of data set [23] is SARS-CoV. The data set can be described thus: Antiviral activity against SARS-CoV BJ-001 infected in African green monkey Vero E6 cells assessed as reduction in virus induced cytopathic effect incubated for 72 hrs by MTS/phenazine methosulfate method. In kind it is functional, organism-based. As to conditions: Severe acute respiratory syndrome-related coronavirus, BJ-001, Vero C1008, 72 h.

Data set [24] in a line: Cytotoxicity against African green monkey Vero E6 cells incubated for 72 hrs by MTS assay. The format is cell-based, Vero C1008. As to conditions: chlorocebus sabaeus.
Data set [25] is described as follows: Selectivity ratio of CC50 for HAE cells to EC50 for SARS-CoV BJ-001 infected in African green monkey Vero E6 cells. In kind it is toxicity, Vero C1008.
Data set [26] is described as follows: Antiviral activity against HCoV-NL63 infected in Rhesus macaque LLC-MK2 cells incubated for 72 hrs by RT-PCR method. The format is functional, cell-based. As to conditions: Human coronavirus NL63, LLC-MK2, 72 h.
Data set [27] has as its system Human coronavirus OC43. The data set can be described thus: Antiviral activity against HCoV-OC43 infected in BALB/c mouse assessed as protection against virus-induced lethal infection at 15 mg/kg, ip administered for 14 days and measured up to 20 days. The format is functional. As to conditions: time day <=20.
A short description of data set [28]: in vitro. As to conditions: hamster, BHK-21 cells.
The nature of data set [29]: in vitro. As to conditions: hamster, BHK-21 cells. This is another data set of the same source.
Data set [30] can be described thus: in vitro. Particulars: rhesus monkey, LLC-MK2 cells.
A short description of data set [31]: in vitro. As to conditions: rhesus monkey, LLC-MK2 cells. This is another data set of the same source.

From ChEMBL document CHEMBL4715853 (J Med Chem, 2020) come the findings set out here.

pEC50, pIC50: −log10 of the molar value. Bounds are passed on as bounds.

For the compound `NC(=O)c1nc(F)cnc1O`, the Activity with SARS-CoV-2 [1] turned out to be 91.4%; in the data set on Zaire ebolavirus [2] it was 100%; in data set [7], 11.4%. For the same compound, the pIC50 in the data set on Zaire ebolavirus [3] was 4.17; in the data set with SARS-CoV-2 [4] it was 4.21. Further, the CC50 in data set [5] was over 400 µM. Besides, the selectivity ratio in data set [6] is over 6.46. Further, the Time with SARS-CoV-2 [8] was 1.7 days; in the data set with SARS-CoV-2 [9], 1.75 days.

In the case of `Cc1ncc(CO)c(C23OC4(O)CC(O)(CC(O)(C4)O2)O3)c1O`, the values for the pIC50 in [10] and in data set [11] were 5.64 and 5.52, respectively. Further, in the data set on SARS-CoV [12], the pEC50 is over 5.00. Besides, the CC50 in [13] was 390 µM.

As to `CCN(CC)CCCC(C)Nc1ccnc2cc(Cl)ccc12` (stereo unspecified) [CHLOROQUINE], the CC50 at 1 h in [14] was over 50 µM. Also, in data set [15], the CC50 at 72 h was over 128 µM. For the same compound, the pEC50 was 5.95 in the data set with SARS-CoV-2 [4], 6.48 in the data set with Human coronavirus OC43 [16] and 5.39 in the data set on SARS-CoV [17]. Moreover, the CC50 in [5] was over 100 µM; in data set [19], 261 µM. This compound also had a pIC50 in the data set on SARS-CoV [18] of 5.06.

As for `Cc1cccc(C)c1OCC(=O)N[C@@H](Cc1ccccc1)[C@@H](O)C[C@H](Cc1ccccc1)NC(=O)[C@H](C(C)C)N1CCCNC1=O` [LOPINAVIR], the Activity with SARS-CoV-2 [20] is listed as 62.2%; in data set [21], 55.6%. This compound also came in with a 50% cytotoxic concentration (CC50) at 1 h in data set [14] of over 37.6 µM. This compound also gave a CC50 at 72 h in [15] of over 32 µM.

Consider `O[C@H]1[C@H]2c3cc4c(cc3CN3CCC(=C[C@@H]1O)[C@H]23)OCO4` [LYCORINE], for which the values for the pEC50 (in the data set on Human coronavirus OC43 [16]; in data set [26]) were 6.82 and 6.33, respectively. The negative-log IC50 (pIC50) in the data set on SARS-CoV [22] and in the data set with SARS-CoV [23] was 7.80 throughout. Besides, the results for the CC50 at 72 h (in data set [24]; in “in vitro [28]”; in the data set “in vitro [30]”) were 14.9 µM, 4.37 µM and 3.81 µM, respectively. The results for the selectivity ratio (in data set [25]; in the data set “in vitro [29]”; in the data set “in vitro [31]”) were 954, 29.1 and 8.11, respectively. The Activity with Human coronavirus OC43 [27] was 83.3%.

What is called pIC50 is −log10 of the IC50, conventionally taken in molar units. For orientation: CC50 means the concentration at which the toxic effect on the cells reaches its halfway point. For orientation: pEC50 means the negative decadic logarithm of the EC50, by convention in mol/L.
